Like-named read-outs stand apart in the source and are kept apart here. *1 amine or outer side, *2 acyl side, *3 side chain or, on linkers, in order; H or OH if unused. Where a SMILES comes first, the peptide text is derived from it. Bridges are numbered along the chain shown (N, C = ends). [ ]: non-standard residue; d: D form. The star is where a group is joined. hPhe(3-Cl-4-CF3) = N[C@@H](CCc1ccc(C(F)(F)F)c(Cl)c1)C(=O)O; X27 = O=C([C@H](Cc1ccc(C(F)(F)F)cc1)N(CC1CC1)[*:1])[*:2]; NPrPhe(4-CF3) = CCCN[C@@H](Cc1ccc(C(F)(F)F)cc1)C(=O)O; NMePhe(4-Me) = CN[C@@H](Cc1ccc(C)cc1)C(=O)O; NMeGly(cPent) = CN[C@H](C(=O)O)C1CCCC1; Pro(4,4-F2) = O=C(O)[C@@H]1CC(F)(F)CN1; NMeD = CN[C@@H](CC(=O)O)C(=O)O; NMeL = CN[C@@H](CC(C)C)C(=O)O; NMeS = CN[C@@H](CO)C(=O)O; Morpholide = C1CN(*)CCO1; NMeA = CN[C@@H](C)C(=O)O; Ac5c = NC1(C(=O)O)CCCC1; Aze = O=C(O)[C@@H]1CCN1; Ac4c = NC1(C(=O)O)CCC1; NPrGly = CCCNCC(=O)O; NEtG = CCNCC(=O)O; Sar = CNCC(=O)O
Columns and labels:
[1] = molecular target: GDP-bound NRAS wild-type protein (Homo sapiens, UniProt P01111); experiment: Binding to NRAS by surface plasmon resonance (SPR), Single Cycle Kinetics; conditions: for NRAS/KRAS (ratio of KD value with respect to NRAS to KD value with respect to KRAS) / NRAS/KRAS (ratio of KD value for NRAS to KD value for KRAS): SPR, GDP-bound NRAS wild-type protein vs GDP-bound KRAS wild-type protein
[2] = molecular target: GDP-bound KRAS wild-type protein (Homo sapiens, UniProt P01116); experiment: Binding to KRAS by surface plasmon resonance (SPR), Single Cycle Kinetics; conditions: GDP-bound KRAS wild-type protein, read-out: KRAS KD
[3] = molecular target: GDP-bound HRAS wild-type protein (Homo sapiens, UniProt P01112); experiment: Binding to HRAS by surface plasmon resonance (SPR), Single Cycle Kinetics; conditions: for HRAS/KRAS (ratio of KD value with respect to HRAS to KD value with respect to KRAS) / HRAS/KRAS (ratio of KD value for HRAS to KD value for KRAS): SPR, GDP-bound HRAS wild-type protein vs GDP-bound KRAS wild-type protein
[4] = SPR Single Cycle Kinetics, 1:1 binding model

GDP-bound KRAS wild-type protein, sequence (P01116 whole entry): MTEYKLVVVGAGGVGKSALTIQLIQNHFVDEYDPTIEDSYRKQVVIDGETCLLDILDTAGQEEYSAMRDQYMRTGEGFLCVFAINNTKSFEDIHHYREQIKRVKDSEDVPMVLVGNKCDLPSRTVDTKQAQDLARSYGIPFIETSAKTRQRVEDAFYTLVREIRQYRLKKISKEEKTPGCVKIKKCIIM
GDP-bound NRAS wild-type protein, sequence (P01111 whole entry): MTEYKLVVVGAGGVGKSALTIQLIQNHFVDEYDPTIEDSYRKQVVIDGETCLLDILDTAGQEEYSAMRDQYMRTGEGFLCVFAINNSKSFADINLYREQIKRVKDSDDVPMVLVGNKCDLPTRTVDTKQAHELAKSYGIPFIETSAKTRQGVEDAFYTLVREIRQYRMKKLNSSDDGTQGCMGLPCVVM
GDP-bound HRAS wild-type protein, sequence (P01112 whole entry): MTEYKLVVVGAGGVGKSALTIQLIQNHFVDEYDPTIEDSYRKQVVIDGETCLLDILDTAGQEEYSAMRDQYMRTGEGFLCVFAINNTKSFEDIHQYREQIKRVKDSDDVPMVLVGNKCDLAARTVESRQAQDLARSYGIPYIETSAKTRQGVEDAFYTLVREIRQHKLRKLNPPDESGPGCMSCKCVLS

| Compound | Kd [2, 4] [pM] | NRAS/KRAS (ratio of KD value with respect to NRAS to KD value with respect to KRAS) [1] | HRAS/KRAS (ratio of KD value with respect to HRAS to KD value with respect to KRAS) [3] | NRAS/KRAS (ratio of KD value for NRAS to KD value for KRAS) [1] | HRAS/KRAS (ratio of KD value for HRAS to KD value for KRAS) [3] | further results |
| --- | --- | --- | --- | --- | --- | --- |
| CCO[C@@H]1C[C@H]2C(=O)NC3(CC(C)(C)C3)C(=O)N(C)[C@@H](C3CCCC3)C(=O)N(C)[C@H](C(=O)N(C)C)CC(=O)N(C)[C@@H](C)C(=O)N[C@@H]([C@@H](C)CC)C(=O)N(C)CC(=O)N(C)[C@H]3CCCCCN(C3=O)[C@@H](Cc3ccc(C(F)(F)F)cc3)C(=O)N(C)CC(=O)N[C@@H](CCc3cc(F)c(C(F)(F)F)c(F)c3)C(=O)N2C1 [PP0723] | 470 | B (a compound having 3 or more and less than 10 is denoted as B) | B (a compound having 3 or more and less than 10 is denoted as B) |  |  |  |
| CC[C@H](C)[C@@H]1NC(=O)[C@H](CC(C)C)N(C)C(=O)C[C@@H](C(=O)N2CCOCC2)NC(=O)[C@H](C2CCCC2)N(C)C(=O)C2(CCCC2)NC(=O)[C@@H]2CCCN2C(=O)[C@H](CCc2cc(F)c(C(F)(F)F)c(F)c2)NC(=O)CN(C)C(=O)[C@H](Cc2ccc(C(F)(F)F)cc2)N2CCCCC[C@@H](C2=O)N(C)C(=O)CN(C)C1=O [PP0479] | 29000 | B (a compound having 3 or more and less than 10 is denoted as B) | B (a compound having 3 or more and less than 10 is denoted as B) |  |  |  |
| CCC[C@@H]1C[C@H]2C(=O)NC3(CC(C)(C)C3)C(=O)N(C)[C@@H](C3CCCC3)C(=O)N(C)[C@H](C(=O)N(C)C)CC(=O)N(C)[C@@H](CC)C(=O)N[C@@H]([C@@H](C)CC)C(=O)N(C)CC(=O)N(C)[C@H]3C/C=C\CCN(C3=O)[C@@H](Cc3ccc(C)cc3)C(=O)N(C)CC(=O)N[C@@H](CCc3cc(F)c(C(F)(F)F)c(F)c3)C(=O)N2C1 [PP2208] |  |  |  | A (a compound having 10 or more and less than 20 is denoted as A) | A (a compound having 10 or more and less than 20 is denoted as A) | Kd ([2]; SPR, Single Cycle Kinetics): 200 pM |
| CCO[C@@H]1C[C@H]2C(=O)NC3(CCC3)C(=O)N(C)[C@@H](C3CCCC3)C(=O)N(C)[C@H](C(=O)N3CCOCC3)CC(=O)N(C)[C@@H](CC)C(=O)N[C@@H]([C@@H](C)CC)C(=O)N(C)CC(=O)N(C)[C@H]3CC/C=C(/C)CN(C3=O)[C@@H](Cc3ccc(C(F)(F)F)cc3)C(=O)N(C)CC(=O)N[C@@H](CCc3cc(F)c(C(F)(F)F)c(F)c3)C(=O)N2C1 [PP1335] |  |  |  |  |  | NRAS/KRAS (ratio of KD value for NRAS to KD value for KRAS) ([1]; KD ratio class): B (a compound having 3 or more and less than 10 is denoted as B); Kd ([2]; SPR, Single Cycle Kinetics, 1:1 binding model): 18000 pM; HRAS/KRAS (ratio of KD value for HRAS to KD value for KRAS) ([3]; KD ratio class): B (a compound having 3 or more and less than 10 is denoted as B) |
| CCCN1C(=O)CN(C)C(=O)CNC(=O)[C@H]([C@@H](C)CC)NC(=O)[C@H](CC(C)C)N(C)C(=O)C[C@@H](C(=O)N2CCOCC2)NC(=O)[C@H](C2CCCC2)N(C)C(=O)C2(CCCC2)NC(=O)[C@@H]2CCCN2C(=O)[C@H](CCc2ccc(C(F)(F)F)c(Cl)c2)NC(=O)CN(C)C(=O)[C@@H]1Cc1ccc(C(F)(F)F)cc1 [PP0325] ([NMeL]IG[Sar][NPrPhe(4-CF3)][Sar][hPhe(3-Cl-4-CF3)]P[Ac5c][NMeGly(cPent)]D-Morpholide; lactam N-11) | 1100 |  |  | B (a compound having 3 or more and less than 10 is denoted as B) | B (a compound having 3 or more and less than 10 is denoted as B) |  |
| CC[C@H](C)[C@@H]1NC(=O)[C@H](CC(C)C)N(C)C(=O)C[C@@H](C(=O)N2CCOCC2)N(C)C(=O)[C@H](C2CCCC2)N(C)C(=O)C2(CCCC2)NC(=O)[C@@H]2CCCN2C(=O)[C@H](CCc2ccc(C(F)(F)F)c(Cl)c2)NC(=O)CN(C)C(=O)[C@H](Cc2ccc(C)cc2)N(C)C(=O)[C@H](CO)N(C)C(=O)CN(C)C1=O [PP0037] ([NMeL]I[Sar][NMeS][NMePhe(4-Me)][Sar][hPhe(3-Cl-4-CF3)]P[Ac5c][NMeGly(cPent)][NMeD]-Morpholide; lactam N-11) | 7600 |  |  | C (A compound having a KD ratio of 0.1 or more and less than 3 is denoted as C) | C (A compound having a KD ratio of 0.1 or more and less than 3 is denoted as C) |  |
| CCC[C@H]1C(=O)N[C@@H]([C@@H](C)CC)C(=O)N(C)CC(=O)N(C)[C@H]2C/C=C\CCN(C2=O)[C@@H](Cc2ccc(C(F)(F)F)cc2)C(=O)N(C)CC(=O)N[C@@H](CCc2ccc(C(F)(F)F)c(OC)c2)C(=O)N2C[C@H](OCC)C[C@H]2C(=O)NC2(CC(C)(C)C2)C(=O)N(C)[C@@H](C(CC)CC)C(=O)N(C)[C@H](C(=O)N(C)C)CC(=O)N1C [PP2160] |  |  |  | A (a compound having 10 or more and less than 20 is denoted as A) | A (a compound having 10 or more and less than 20 is denoted as A) | Kd ([2]; SPR, Single Cycle Kinetics): 220 pM |
| CCCN1CC(=O)NC2(CCCC2)C(=O)N(C)[C@@H](C2CCCC2)C(=O)N(C)[C@H](C(=O)N2CCOCC2)CC(=O)N(C)[C@@H](CC(C)C)C(=O)N[C@@H]([C@@H](C)CC)C(=O)N(CC)CC(=O)N(C)CC(=O)N(CCC)[C@@H](Cc2ccc(C(F)(F)F)cc2)C(=O)N(C)CC(=O)N[C@@H](CCc2ccc(C(F)(F)F)c(Cl)c2)C1=O [PP0301] ([NMeL]I[NEtG][Sar][NPrPhe(4-CF3)][Sar][hPhe(3-Cl-4-CF3)][NPrGly][Ac5c][NMeGly(cPent)][NMeD]-Morpholide; lactam N-11) | 4800 |  |  | B (a compound having 3 or more and less than 10 is denoted as B) | C (A compound having a KD ratio of 0.1 or more and less than 3 is denoted as C) |  |
| CCCN1C(=O)CN(C)C(=O)CNC(=O)[C@H]([C@@H](C)CC)NC(=O)[C@H](CC(C)C)N(C)C(=O)C[C@@H](C(=O)N2CCOCC2)NC(=O)[C@H](C2CCCC2)N(C)C(=O)C2(CCC2)NC(=O)[C@@H]2CC(F)(F)CN2C(=O)[C@H](CCc2ccc(C(F)(F)F)c(Cl)c2)NC(=O)CN(C)C(=O)[C@@H]1Cc1ccc(C(F)(F)F)cc1 [PP0328] ([NMeL]IG[Sar][NPrPhe(4-CF3)][Sar][hPhe(3-Cl-4-CF3)][Pro(4,4-F2)][Ac4c][NMeGly(cPent)]D-Morpholide; lactam N-11) | 1600 |  |  | B (a compound having 3 or more and less than 10 is denoted as B) | B (a compound having 3 or more and less than 10 is denoted as B) |  |

Second part, led by results:

| Kd [2, 4] [pM] | Compound | NRAS/KRAS (ratio of KD value with respect to NRAS to KD value with respect to KRAS) [1] | HRAS/KRAS (ratio of KD value with respect to HRAS to KD value with respect to KRAS) [3] | NRAS/KRAS (ratio of KD value for NRAS to KD value for KRAS) [1] | HRAS/KRAS (ratio of KD value for HRAS to KD value for KRAS) [3] | further results |
| --- | --- | --- | --- | --- | --- | --- |
| 65 | CCO[C@@H]1C[C@H]2C(=O)NC3(CC(C)(C)C3)C(=O)N(C)[C@@H](C3CCCC3)C(=O)N(C)[C@H](C(=O)N(C)CC)CC(=O)N(C)[C@@H](COC)C(=O)N[C@@H]([C@@H](C)CC)C(=O)N(C)CC(=O)N(C)[C@H]3C/C=C\CCN(C3=O)[C@@H](Cc3ccc(C(F)(F)F)cc3)C(=O)N(C)CC(=O)N[C@@H](CCc3ccc(C(F)(F)F)c(Cl)c3)C(=O)N2C1 [PP2836] |  |  |  |  | NRAS/KRAS (ratio of KD value with respect to GDP-bound NRAS wild-type protein to KD value with respect to KRAS) ([1]; SPR KD ratio NRAS/KRAS, class symbols): A (a compound having 10 or more and less than 20 is denoted as A); HRAS/KRAS (ratio of KD value with respect to GDP-bound HRAS wild-type protein to KD value with respect to KRAS) ([3]; SPR KD ratio HRAS/KRAS, class symbols): A (a compound having 10 or more and less than 20 is denoted as A) |
| 200 | CC[C@H](C)[C@@H]1NC(=O)[C@H](CC(C)C)N(C)C(=O)C[C@@H](C(=O)N2CCOCC2)N(C)C(=O)[C@H](C2CCCC2)N(C)C(=O)C2(CCCC2)NC(=O)[C@@H]2CCCN2C(=O)[C@H](CCc2ccc(C(F)(F)F)c(Cl)c2)NC(=O)CN(C)C(=O)[C@H](Cc2ccc(C(F)(F)F)cc2)N(CC2CC2)C(=O)[C@@H]2CCN2C(=O)[C@H](C)N(C)C1=O [PP0108] ([NMeL]I[NMeA][Aze][X27][Sar][hPhe(3-Cl-4-CF3)]P[Ac5c][NMeGly(cPent)][NMeD]-Morpholide; lactam N-11) |  |  | C (A compound having a KD ratio of 0.1 or more and less than 3 is denoted as C) | C (A compound having a KD ratio of 0.1 or more and less than 3 is denoted as C) |  |
| 160 | CC[C@H](C)[C@@H]1NC(=O)[C@H](CC(C)C)N(C)C(=O)C[C@@H](C(=O)N2CCOCC2)N(C)C(=O)[C@H](C2CCCC2)N(C)C(=O)C2(CCCC2)NC(=O)[C@@H]2CCCN2C(=O)[C@H](CCc2ccc(C(F)(F)F)c(Cl)c2)NC(=O)CN(C)C(=O)[C@H](Cc2ccc(OC)cc2)N2CCCC[C@@H](C2=O)N(C)C(=O)CN(C)C1=O [PP0534] | B (a compound having 3 or more and less than 10 is denoted as B) | B (a compound having 3 or more and less than 10 is denoted as B) |  |  |  |
| 25 | C#CC[C@H]1C(=O)N[C@@H]([C@@H](C)CC)C(=O)N(C)CC(=O)N(C)[C@H]2CCCCN(C2=O)[C@@H](Cc2ccc(C(F)(F)F)cc2)C(=O)N(C)CC(=O)N[C@@H](CCc2cc(F)c(C(F)(F)F)c(F)c2)C(=O)N2C[C@H](OCC)C[C@H]2C(=O)NC2(CCC2)C(=O)N(C)[C@@H](C2CCCC2)C(=O)N(C)[C@H](C(=O)N2CCOCC2)CC(=O)N1C [PP0711] | C (A compound having a KD ratio of 0.1 or more and less than 3 is denoted as C) | B (a compound having 3 or more and less than 10 is denoted as B) |  |  |  |
